From patent US20240207427A1, “SELECTIVE DRUG RELEASE FROM INTERNALIZED CONJUGATES OF BIOLOGICALLY ACTIVE COMPOUNDS” (priority 2021, published 2024)
Where two headings read alike, the source gives them in different places.

Key:
Format in all cases: cell-based
[1] = system: anaplastic large cell lymphoma cells (Karpas299); assay: In vitro potency (CellTiter-Glo, 96 h), Karpas299; conditions: Homo sapiens, KARPAS-299, 96 h, CellTiter-Glo after 96 h exposure
Procedure, shortened: (§1)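 Medium: RPMI 1640 + 20% FBS. Pre-seeding: 24 h. Treatment: ADC or CPT free drug serial dilutions, 96 h, 37 °C. Read-out: luminescence; IC50 in ng/mL and nmol/L.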

[2] = system: renal carcinoma cells (786-O); assay: In vitro potency (CellTiter-Glo, 96 h), 786-O; conditions: Homo sapiens, 786-0, 96 h, CellTiter-Glo after 96 h exposure
Procedure, shortened: as §1

[3] = system: anaplastic large cell lymphoma cells (DELBVR); assay: In vitro potency (CellTiter-Glo, 96 h), DELBVR
Procedure, shortened: as §1

[4] = system: non-small-cell lung cancer cells (Calu1); assay: In vitro potency (CellTiter-Glo, 96 h), Calu1; conditions: Homo sapiens, Calu-1, 96 h, read-out: IC50 (nmol/L) Calu1
Procedure, shortened: (§2)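 Antibody-drug conjugates, prepared as dilution series in culture medium, were added to cells seeded a day earlier in RPMI 1640 supplemented with 20% FBS. After four days at 37 °C, luminescence measured growth inhibition.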

[5] = system: B-lymphocyte cancer cells (SU-DHL4); assay: In vitro potency (CellTiter-Glo, 96 h), SU-DHL-4; conditions: Homo sapiens, SU-DHL-4, 96 h, CellTiter-Glo after 96 h exposure
Procedure, shortened: as §1

[6] = system: Ls174T cells; assay: In vitro potency (CellTiter-Glo, 96 h), Ls174T; conditions: Homo sapiens, LS174T, CellTiter-Glo after 96 h exposure
Procedure, shortened: (§3)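 Four-day continuous exposure at 37 °C to serially diluted ADC or free camptothecin payload, in RPMI 1640 with 20% FBS after 24 h pre-plating. Luminescent signal gave IC50 (ng/mL; nmol/L).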

[7] = system: breast cancer cells (MDA-MB-231); assay: In vitro potency (CellTiter-Glo, 96 h), MDA-MB-231; conditions: Homo sapiens, MDA-MB-231, 96 h, CellTiter-Glo after 96 h exposure
Procedure, shortened: as §1

[8] = system: Hodgkin's lymphoma cells (L540cy); assay: In vitro potency (CellTiter-Glo, 96 h), L540cy
Procedure, shortened: as §1

[9] = system: melanoma cells (A2058); assay: In vitro potency (CellTiter-Glo, 96 h), A2058; conditions: Homo sapiens, A2058, 96 h, read-out: IC50 (nmol/L) A2058
Procedure, shortened: as §2

[10] = system: pancreatic cancer cells (BxPC3); assay: In vitro potency (CellTiter-Glo, 96 h), BxPC3; conditions: Homo sapiens, BXPC-3, 96 h, CellTiter-Glo after 96 h exposure
Procedure, shortened: (§4)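 Seed log-phase cells 24 h (RPMI 1640, 20% FBS); add ADC serial dilutions; incubate 96 h, 37 °C; read luminescence; IC50 in ng/mL.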

[11] = system: anaplastic large cell lymphoma cells (DEL); assay: In vitro potency (CellTiter-Glo, 96 h), DEL
Procedure, shortened: as §3

[12] = system: acute myeloid leukemia cells (MOLM-13); assay: In vitro potency (CellTiter-Glo, 96 h), MOLM-13; conditions: Homo sapiens, MOLM-13, 96 h, CellTiter-Glo after 96 h exposure
Procedure, shortened: as §4

[13] = CPT free drugs, Table 24, read-out: IC50 (nmol/L) Karpas299
[14] = CPT free drugs, Table 24, read-out: IC50 (nmol/L) 786-O
[15] = CPT free drugs, Table 24, CellTiter-Glo after 96 h exposure, read-out: IC50 (nmol/L) DELBVR
[16] = CPT free drugs, Table 24, CellTiter-Glo after 96 h exposure
[17] = CPT free drugs, Table 24, read-out: IC50 (nmol/L) SU-DHL-4
[18] = CPT free drugs, Table 24, read-out: IC50 (nmol/L) Ls174T
[19] = CPT free drugs, Table 24, read-out: IC50 (nmol/L) MDAMB231
[20] = CPT free drugs, Table 24, CellTiter-Glo after 96 h exposure, read-out: IC50 (nmol/L) L540cy
[21] = CPT free drugs, Table 24, read-out: IC50 (nmol/L) BxPC3
[22] = CPT free drugs, Table 24, CellTiter-Glo after 96 h exposure, read-out: IC50 (nmol/L) DEL
[23] = CPT free drugs, Table 24, read-out: IC50 (nmol/L) MOLM-13

Row | Structure (SMILES) | IC50 [1, 13] [nmol/L] | IC50 [2, 14] [nmol/L] | IC50 [3, 15] [nmol/L] | IC50 [4, 16] [nmol/L] | IC50 [5, 17] [nmol/L] | IC50 [6, 18] [nmol/L] | IC50 [7, 19] [nmol/L] | IC50 [8, 20] [nmol/L] | IC50 [9, 16] [nmol/L] | IC50 [10, 21] [nmol/L] | IC50 [11, 22] [nmol/L] | IC50 [12, 23] [nmol/L] | other results
1 | CC[C@@]1(O)C(=O)OCc2c1cc1n(c2=O)Cc2c-1nc1ccc(SC(F)(F)F)cc1c2CN [Compound 2r] | 37 | 21 | 8.4 | 168 | 16 | 15.6 | 19 | 15 | 11 | 75 | 4.4 | 23 | 
2 | CC[C@@]1(O)C(=O)OCc2c1cc1n(c2=O)Cc2c-1nc1cc(F)c(C)c(C)c1c2CN [Compound 2s] |  |  |  |  |  |  |  |  |  |  |  |  | IC50 ([1]; read-out: IC50 (nmol/L) Karpas299, CPT free drugs, Table 24): 2 nmol/L; IC50 ([2]; read-out: IC50 (nmol/L) 786-O, CPT free drugs, Table 24): 3 nmol/L; IC50 ([3]; read-out: IC50 (nmol/L) DELBVR, CPT free drugs, Table 24, CellTiter-Glo after 96 h exposure): 1 nmol/L; IC50 [4]: 22 nmol/L; IC50 ([5]; read-out: IC50 (nmol/L) SU-DHL-4, CPT free drugs, Table 24): 2 nmol/L; IC50 ([6]; 96 h, read-out: IC50 (nmol/L) Ls174T, CPT free drugs, Table 24): 3.7 nmol/L; IC50 ([7]; read-out: IC50 (nmol/L) MDAMB231, CPT free drugs, Table 24): 2 nmol/L; IC50 ([8]; read-out: IC50 (nmol/L) L540cy, CPT free drugs, Table 24, CellTiter-Glo after 96 h exposure): 2 nmol/L; IC50 [9]: 1 nmol/L; IC50 ([10]; read-out: IC50 (nmol/L) BxPC3, CPT free drugs, Table 24): 7 nmol/L; IC50 ([11]; read-out: IC50 (nmol/L) DEL, CPT free drugs, Table 24, CellTiter-Glo after 96 h exposure): 1 nmol/L; IC50 ([12]; read-out: IC50 (nmol/L) MOLM-13, CPT free drugs, Table 24): 18 nmol/L
3 | CC[C@@]1(O)C(=O)OCc2c1cc1n(c2=O)Cc2c-1nc1ccc3c(c1c2CN)OCC3 [Compound 2t] | 133 | 101 | 33 | ≥ 1000 | 51 | 18 | 73 | 43 | 39 | 230 | 18 | 179 | 
4 | CC[C@@]1(O)C(=O)OCc2c1cc1n(c2=O)Cc2c-1nc1ccc3c(c1c2CN)CCC3 [Compound 2u] | 7 | 10 | 2 | 61 | 4 | 5.3 | 6 | 5 | 4 | 23 | 2 | 48.3 | 
5 | CC[C@@]1(O)C(=O)OCc2c1cc1n(c2=O)Cc2c-1nc1cc3c(cc1c2CN)CCC3 [Compound 2v] | 37 | 33 | 14 | 247 | 33.8 | 17 | 34 | 19 | 19 | 165 | 9 | 350 | 
6 | CCc1cc2nc3c(c(CN)c2c(F)c1C)Cn1c-3cc2c(c1=O)COC(=O)[C@]2(O)CC [Compound 2w] | > 1000 | 649 | 271 | > 1000 | 958 | 843 | > 1000 | 922 | 286 | > 1000 | 283 | > 1000 | 
